Test results published in ChEMBL document CHEMBL1134446, “Polyamine analogue antidiarrheals: a structure-activity study” (J Med Chem, 2001).
Values joined by “and” are separate entries in the source; they are usually repeats but may differ in a detail not shown here. Equal entries are not always repeated.

How the values were obtained:
Format in all cases: functional
Rattus norvegicus [1] = assay: Weight loss of rat over the 6-h experimental period when a dose of 5 mg/kg (11.6 administered
Rattus norvegicus [2] = assay: Percent reduction was determined by using the ratio of mean of treated animal to that of control animal at a dose of 25 mg/kg
Rattus norvegicus [3] = assay: Weight loss of rat over the 6-h experimental period when a dose of 1 mg/kg (2.3 uMl) was administered
Rattus norvegicus [4] = assay: Stool output of rat over the 6-h collection period when a dose of 5 mg/kg (11.6 administered
Rattus norvegicus [5] = assay: Stool output of rat over the 6-h collection period when a dose of 0 mg/kg (0 administered
Rattus norvegicus [6] = assay: Weight loss of rat over the 6-h experimental period when a dose of 25 mg/kg (57.8 administered
Rattus norvegicus [7] = assay: Percent reduction was determined by using the ratio of mean of treated animal to that of control animal at a dose of 1 mg/kg
Rattus norvegicus [8] = assay: Stool output of rat over the 6-h collection period when a dose of 1 mg/kg (2.3 administered
Rattus norvegicus [9] = assay: Weight loss of rat over the 6-h experimental period when a dose of 0 mg/kg (0 administered
Rattus norvegicus [10] = assay: Stool output of rat over the 6-h collection period when a dose of 25 mg/kg (57.8 administered
Rattus norvegicus [11] = assay: Percent reduction was determined by using the ratio of mean of treated animal to that of control animal at a dose of 5 mg/kg
Rattus norvegicus [12] = assay: Weight loss of rat over the 6-h experimental period when a dose of 47 mg/kg (116.25 uM) was given orally; settings: route oral
Rattus norvegicus [13] = assay: Weight loss of rat over the 6-h experimental period when a dose of 0 mg/kg (0 uM) was given orally; settings: route oral
Rattus norvegicus [14] = assay: Weight loss of rat over the 6-h experimental period when a dose of 94 mg/kg (232.5 uM) was given orally; settings: route oral
Rattus norvegicus [15] = assay: Weight loss of rat over the 6-h experimental period when a dose of 5.9 mg/kg (11.6 administered
Rattus norvegicus [16] = assay: Stool output of rat over the 6-h collection period when a dose of 94 mg/kg (232.5 uM) was given orally; settings: route oral
Rattus norvegicus [17] = assay: Weight loss of rat over the 6-h experimental period when a dose of 23.5 mg/kg (58.13 uM) was given orally; settings: route oral
Rattus norvegicus [18] = assay: Stool output of rat over the 6-h collection period when a dose of 23.5 mg/kg (58.13 uM) was given orally; settings: route oral
Rattus norvegicus [19] = assay: Stool output of rat over the 6-h collection period when a dose of 5.9 mg/kg (11.6 administered
Rattus norvegicus [20] = assay: Stool output of rat over the 6-h collection period when a dose of 0 mg/kg (0 uM) was given orally; settings: route oral
Rattus norvegicus [21] = assay: Stool output of rat over the 6-h collection period when a dose of 47 mg/kg (116.25 uM) was given orally; settings: route oral
Rattus norvegicus [22] = assay: Weight loss of rat over the 6-h experimental period when a dose of 15 mg/kg (47.6 administered
Rattus norvegicus [23] = assay: Stool output of rat over the 6-h collection period when a dose of 15 mg/kg (47.6 administered
Rattus norvegicus [24] = assay: Stool output of rat over the 6-h collection period when a dose of 4.6 mg/kg (11.6 administered
Rattus norvegicus [25] = assay: Weight loss of rat over the 6-h experimental period when a dose of 4.6 mg/kg (11.6 administered
Rattus norvegicus [26] = assay: Percent reduction was determined by using the ratio of mean of treated animal to that of control animal at a dose of 5.3 mg/kg
Rattus norvegicus [27] = assay: Stool output of rat over the 6-h collection period when a dose of 5.3 mg/kg (11.6 administered
Rattus norvegicus [28] = assay: Weight loss of rat over the 6-h experimental period when a dose of 10.7 mg/kg (23.2 administered
Rattus norvegicus [29] = assay: Stool output of rat over the 6-h collection period when a dose of 10.7 mg/kg (23.2 administered
Rattus norvegicus [30] = assay: Percent reduction was determined by using the ratio of mean of treated animal to that of control animal at a dose of 10.7 mg/kg
Rattus norvegicus [31] = assay: Weight loss of rat over the 6-h experimental period when a dose of 5.3 mg/kg (11.6 administered
Rattus norvegicus [32] = assay: Weight loss of rat over the 6-h experimental period when a dose of 30.4 mg/kg (57.8 administered
Rattus norvegicus [33] = assay: Stool output of rat over the 6-h collection period when a dose of 30.4 mg/kg (57.8 administered
Rattus norvegicus [34] = assay: Stool output of rat over the 6-h collection period when a dose of 6.11 mg/kg (11.6 administered
Rattus norvegicus [35] = assay: Stool output of rat over the 6-h collection period when a dose of 1.22 mg/kg (2.3 administered
Rattus norvegicus [36] = assay: Weight loss of rat over the 6-h experimental period when a dose of 1.22 mg/kg (2.3 administered
Rattus norvegicus [37] = assay: Weight loss of rat over the 6-h experimental period when a dose of 6.11 mg/kg (11.6 administered
Rattus norvegicus [38] = assay: Stool output of rat over the 6-h collection period when a dose of 50 mg/kg (115.6 uM) was given orally; settings: route oral
Rattus norvegicus [39] = assay: Percent reduction was determined by using the ratio of mean of treated animal to that of control animal at a dose of 12.5 mg/kg
Rattus norvegicus [40] = assay: Stool output of rat over the 6-h collection period when a dose of 2.5 mg/kg (5.8 administered
Rattus norvegicus [41] = assay: Weight loss of rat over the 6-h experimental period when a dose of 2.5 mg/kg (5.8 administered
Rattus norvegicus [42] = assay: Percent reduction was determined by using the ratio of mean of treated animal to that of control animal at a dose of 50 mg/kg
Rattus norvegicus [43] = assay: Weight loss of rat over the 6-h experimental period when a dose of 25 mg/kg (57.6 uM) was given orally; settings: route oral
Rattus norvegicus [44] = assay: Weight loss of rat over the 6-h experimental period when a dose of 50 mg/kg (115.6 uM) was given orally; settings: route oral
Rattus norvegicus [45] = assay: Stool output of rat over the 6-h collection period when a dose of 12.5 mg/kg (28.9 uM) was given orally; settings: route oral
[46] = The acute toxicity was determined in female CD1 mice after (ip) administration; settings: Mus musculus
Rattus norvegicus [47] = assay: Percent reduction was determined by using the ratio of mean of treated animal to that of control animal at a dose of 2.5 mg/kg
Rattus norvegicus [48] = assay: Weight loss of rat over the 6-h experimental period when a dose of 1 mg/kg (2.3 administered
Rattus norvegicus [49] = assay: Weight loss of rat over the 6-h experimental period when a dose of 12.5 mg/kg (28.9 uM) was given orally; settings: route oral
Rattus norvegicus [50] = assay: Stool output of rat over the 6-h collection period when a dose of 25 mg/kg (57.6 uM) was given orally; settings: route oral
Rattus norvegicus [51] = assay: Stool output of rat over the 6-h collection period when a dose of 1.1 mg/kg (2.3 administered
Rattus norvegicus [52] = assay: Weight loss of rat over the 6-h experimental period when a dose of 1.1 mg/kg (2.3 administered
Rattus norvegicus [53] = assay: Stool output of rat over the 6-h collection period when a dose of 2.7 mg/kg (5.8 administered
Rattus norvegicus [54] = assay: Weight loss of rat over the 6-h experimental period when a dose of 2.7 mg/kg (5.8 administered

CCCNCCCNCCCCNCCCNCCC
Weight loss (Rattus norvegicus [1]): <5.7 g
Reduction (Rattus norvegicus [2]): 69% and 100%
Weight loss (Rattus norvegicus [3]): <9.1 g
Stool output (Rattus norvegicus [4]): <2.7 g (350g of rat weight)-1
Stool output (Rattus norvegicus [5]): 6 g (350g of rat weight)-1
Weight loss (Rattus norvegicus [6]): <4 g
Reduction (Rattus norvegicus [7]): 31% and 37%
Stool output (Rattus norvegicus [8]): >3.8 g (350g of rat weight)-1
Weight loss (Rattus norvegicus [9]): 13.1 g
Stool output (Rattus norvegicus [10]): <0 g (350g of rat weight)-1
Reduction (Rattus norvegicus [11]): 56% and 55%

FC(F)(F)CNCCCNCCCCNCCCNCC(F)(F)F
Weight loss (Rattus norvegicus [12]): <3.8 g
Weight loss (Rattus norvegicus [13]): 15.1 g
Weight loss (Rattus norvegicus [14]): <2.8 g
Weight loss (Rattus norvegicus [15]): >17.2 g
Stool output (Rattus norvegicus [5]): 7.2 g (350g of rat weight)-1
Stool output (Rattus norvegicus [16]): <0 g (350g of rat weight)-1
Weight loss (Rattus norvegicus [17]): <6.2 g
Stool output (Rattus norvegicus [18]): <1.9 g (350g of rat weight)-1
Stool output (Rattus norvegicus [19]): >7.5 g (350g of rat weight)-1
Stool output (Rattus norvegicus [20]): 7.2 g (350g of rat weight)-1
Stool output (Rattus norvegicus [21]): <0.6 g (350g of rat weight)-1
Weight loss (Rattus norvegicus [9]): 18.2 g

c1cc(NCCCCNc2ccncc2)ccn1
Weight loss (Rattus norvegicus [22]): >14.4 g
Stool output (Rattus norvegicus [5]): 5.6 g (350g of rat weight)-1
Stool output (Rattus norvegicus [23]): >6.9 g (350g of rat weight)-1
Weight loss (Rattus norvegicus [9]): 13.3 g

C(CCNC1CCNCC1)CNC1CCNCC1
Stool output (Rattus norvegicus [5]): 4.2 g (350g of rat weight)-1
Stool output (Rattus norvegicus [24]): >4.7 g (350g of rat weight)-1
Weight loss (Rattus norvegicus [25]): >9.5 g
Weight loss (Rattus norvegicus [9]): 10 g

CC(C)CNCCCNCCCCNCCCNCC(C)C
Stool output (Rattus norvegicus [5]): 7.2 g (350g of rat weight)-1
Reduction (Rattus norvegicus [26]): 39%
Stool output (Rattus norvegicus [27]): >5.1 g (350g of rat weight)-1
Weight loss (Rattus norvegicus [28]): <5 g
Weight loss (Rattus norvegicus [9]): 18.2 g
Stool output (Rattus norvegicus [29]): >1.6 g (350g of rat weight)-1
Reduction (Rattus norvegicus [30]): 78%
Weight loss (Rattus norvegicus [31]): <11.1 g

c1ccc(CNCCCNCCCCNCCCNCc2ccccc2)cc1
Weight loss (Rattus norvegicus [32]): >10.4 g
Stool output (Rattus norvegicus [33]): >5 g (350g of rat weight)-1
Stool output (Rattus norvegicus [34]): >6.3 g (350g of rat weight)-1
Stool output (Rattus norvegicus [35]): >6.4 g (350g of rat weight)-1
Stool output (Rattus norvegicus [5]): 6.2 g (350g of rat weight)-1
Weight loss (Rattus norvegicus [36]): >13.5 g
Weight loss (Rattus norvegicus [37]): >13.1 g
Weight loss (Rattus norvegicus [9]): 13.3 g

CC(C)NCCCNCCCCNCCCNC(C)C
Weight loss (Rattus norvegicus [1]): <4.4 g
Stool output (Rattus norvegicus [38]): <0 g (350g of rat weight)-1
Reduction (Rattus norvegicus [39]): 49% and 50%
Weight loss (Rattus norvegicus [13]): 17.2 g
Stool output (Rattus norvegicus [40]): <0 g (350g of rat weight)-1
Weight loss (Rattus norvegicus [41]): <4.2 g
Reduction (Rattus norvegicus [2]): 79% and 100%
Stool output (Rattus norvegicus [4]): <0.9 g (350g of rat weight)-1
Stool output (Rattus norvegicus [5]): 6.8 g (350g of rat weight)-1
Reduction (Rattus norvegicus [42]): 81% and 100%
Weight loss (Rattus norvegicus [43]): <3.6 g
Weight loss (Rattus norvegicus [44]): <3.2 g
Stool output (Rattus norvegicus [45]): <3.6 g (350g of rat weight)-1
Stool output (Rattus norvegicus [20]): 7.2 g (350g of rat weight)-1
LD50 [46]: 125 mg/kg
Reduction (Rattus norvegicus [47]): 64% and 100%
Reduction (Rattus norvegicus [7]): 42% and 57%
Weight loss (Rattus norvegicus [48]): <6.9 g
Stool output (Rattus norvegicus [8]): <2.9 g (350g of rat weight)-1
Weight loss (Rattus norvegicus [9]): 11.8 g
Weight loss (Rattus norvegicus [49]): <8.7 g
Stool output (Rattus norvegicus [50]): <0 g (350g of rat weight)-1
Reduction (Rattus norvegicus [11]): 63% and 87%

CCCCNCCCNCCCCNCCCNCCCC
Stool output (Rattus norvegicus [51]): >3.5 g (350g of rat weight)-1
Stool output (Rattus norvegicus [5]): 4.6 g (350g of rat weight)-1
Weight loss (Rattus norvegicus [52]): >10.2 g
Stool output (Rattus norvegicus [53]): >4.2 g (350g of rat weight)-1
Stool output (Rattus norvegicus [27]): >5.5 g (350g of rat weight)-1
Weight loss (Rattus norvegicus [54]): >11.2 g
Weight loss (Rattus norvegicus [9]): 13.6 g
Weight loss (Rattus norvegicus [31]): >12 g
